Assay [1] has as its system CHO cells producing an anti-IL8 IgG monoclonal antibody (ATCC CRL-12445). Put plainly: Reduction of fucosylation of anti-IL8 mAb produced by CHO cells, LC-MS analysis. The class given is cell-based. From the text:
Briefly, Epicatechin Monogallate (ECG), Epicatechin-3-Monogallate (ECGC) and Aurin Tricarboxylic Acid (ATA) were included in the cell culture media and added to CHO cells producing an anti-IL8 IgG monoclonal antibody (mAb) obtained from [NT] CRL-12445), which is also described in U.S. Pat. No. 6,025,158, which is hereby incorporated by reference in its entirety. After a specified period of time the cells were harvested and the anti-IL8 mAb purified by standard methods. Purified anit-IL8 mAbs were then reduced by the addition of dithiothreitol and subjected to LC-MS analysis to determine the level of fucosylation. The decrease in the level of anti-IL8 fucosylation are depicted in FIG. 20 AND FIG. 21.

Assay [2] deals with T1, fucosyltransferase (FUT-8) (Homo sapiens, UniProt Q9BYC5).
T1 sequence (Q9BYC5 1-575): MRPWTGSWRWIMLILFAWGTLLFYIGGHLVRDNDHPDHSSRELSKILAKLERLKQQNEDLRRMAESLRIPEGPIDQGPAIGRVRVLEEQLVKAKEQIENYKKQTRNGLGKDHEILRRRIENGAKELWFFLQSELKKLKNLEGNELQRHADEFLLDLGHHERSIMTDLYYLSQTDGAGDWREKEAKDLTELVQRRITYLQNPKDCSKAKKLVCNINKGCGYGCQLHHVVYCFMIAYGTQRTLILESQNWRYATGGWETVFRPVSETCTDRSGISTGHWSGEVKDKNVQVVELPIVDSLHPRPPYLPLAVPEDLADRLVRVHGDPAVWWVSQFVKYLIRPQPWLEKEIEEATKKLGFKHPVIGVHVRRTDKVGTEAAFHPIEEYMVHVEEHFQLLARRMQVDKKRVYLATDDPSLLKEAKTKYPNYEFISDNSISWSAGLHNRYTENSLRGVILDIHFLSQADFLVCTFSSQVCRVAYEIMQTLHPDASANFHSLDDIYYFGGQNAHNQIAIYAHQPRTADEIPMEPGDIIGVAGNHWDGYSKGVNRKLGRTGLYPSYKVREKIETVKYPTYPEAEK
Put plainly: Inhibition of fucosyltransferase (FUT-8) activity, detection of fucosylation of the substrate protein. The class given is biochemical. To be noted: for inhibition at 10 µM: read-out: Primary Screen (10 μM), inhibition value. The method, then:
Briefly, a compound was combined with fucosyltransferase (FUT-8) and appropriate substrates and incubated for 1 hour. The reaction was terminated, and a detection reagent mixture was added to detect the amount of fucosylation of the substrate protein.

Setting [3] is: 10 μM compound, incubated for 1 hour.
[4] abbreviates: incubated for 1 hour, read-out: IC50 Value.

Counter-ions that a name gives are not always drawn. Like-named read-outs stand apart in the source and are kept apart here. Bounds are passed on as bounds.

By inhibition is commonly meant how much of the control response was suppressed. What is called IC50 is the concentration that gives 50% inhibition.

`O=C(O[C@@H]1Cc2c(O)cc(O)cc2O[C@@H]1c1cc(O)c(O)c(O)c1)c1cc(O)c(O)c(O)c1`: the reduction in fucosylation in assay [1] (10 μM in cell culture media) amounted to 6%. For the same compound, the inhibition at 10 µM in assay [2] (setting [3]) stood at 39%. In addition, in assay [2] (setting [4]), the IC50 is greater than 10 µM.
In the case of `O=C1C=C2CC3(O)COc4c(ccc(O)c4O)C3=C2C=C1O` (centres unmarked), the inhibition at 10 µM in assay [2] (setting [3]) came to 82%. The half-inhibitory concentration (IC50) in assay [2] (setting [4]) was less than 10 µM.
On the same counts, the results for `C[n+]1c2cc(N)ccc2cc2ccc(N)cc21` [Acriflavinium] are 47% and greater than 10 µM.
On the same counts, the results for `O=C1c2c(O)cccc2Cc2cccc(O)c21` [Anthralin, reference compound] are 28% and greater than 10 µM.
Regarding `O=C(O)C1=CC(=C(c2ccc(O)c(C(=O)O)c2)c2ccc(O)c(C(=O)O)c2)C=CC1=O` [Aurin Tricarboxylic Acid], the “change of fucosylation level” value in assay [1] (either concentration tested (data not shown)) was “did not alter the fucosylation level”. Moreover, the inhibition at 10 µM in assay [2] (setting [3]) came out at 34%. Besides, the IC50 in assay [2] (setting [4]) was greater than 10 µM.
As for `O=c1cc(-c2ccccc2)oc2cc(O)c(O)c(O)c12` [Baicalein], the inhibition at 10 µM in assay [2] (setting [3]) came out at 29%.
As for `O=c1cc(-c2ccccc2)oc2cc(O)cc(O)c12` [Chrysin], the inhibition at 10 µM in assay [2] (setting [3]) came out at 30%. In assay [2] (setting [4]), the IC50 was greater than 10 µM.
As for `N.N.[Cl][Pt][Cl]` [Cisplatin, reference compound], the “Primary Screen (10 μM), inhibition value” in assay [2] (setting [3]) turned out to be 60%. In addition, the IC50 in assay [2] (setting [4]) is greater than 10 µM.
Consider `COc1ccc(-c2cc(=O)c3c(O)cc(O)cc3o2)cc1O` [Diometin], for which the inhibition at 10 µM in assay [2] (setting [3]) is 35%.
Take `O=C(O[C@@H]1Cc2c(O)cc(O)cc2O[C@@H]1c1ccc(O)c(O)c1)c1cc(O)c(O)c(O)c1` [Epicatechin Monogallate]: the reduction in fucosylation came to 13% in assay [1] (10-fold lower concentration than 100 μM) and 25% in assay [1] (maximum concentration (100 μM) in cell culture media). Besides, in assay [1] (dose dependence), the “core fucosylated species, with concomitant rise in the afucosylated species” value is recorded as “dose dependent decrease”. For the same compound, the inhibition at 10 µM in assay [2] (setting [3]) amounted to 25%. Further, the IC50 in assay [2] (setting [4]) was greater than 10 µM.
With `CCOc1ccc2nc3cc(N)ccc3c(N)c2c1` [Ethcridine Lactate, Etheridine Lactate], the inhibition at 10 µM in assay [2] (setting [3]) was 26%. In assay [2] (setting [4]), the IC50 is greater than 10 µM.
As for `Cc1cc2c(C(C)C)c(O)c(O)c(C=O)c2c(O)c1-c1c(C)cc2c(C(C)C)c(O)c(O)c(C=O)c2c1O` [Gossypol], in assay [2], the IC50 is greater than 10 µM and the inhibition at 10 µM came to 26%.
For `Oc1c(Cl)cc(Cl)c(Cl)c1Cc1c(O)c(Cl)cc(Cl)c1Cl` [Hexachlorophene, reference compound], in that order: greater than 10 µM and 40%.
Regarding `CCN(CC)CCNc1ccc(CO)c2sc3ccccc3c(=O)c12` [Hycanthone, reference compound], the inhibition at 10 µM in assay [2] (setting [3]) turned out to be 27%. For the same compound, in assay [2] (setting [4]), the IC50 is greater than 10 µM.
Regarding `C=C1c2cccc(O)c2C(=O)C2=C(O)[C@]3(O)C(=O)C(C(N)=O)=C(O)[C@@H](N(C)C)[C@@H]3[C@@H](O)[C@H]12` [Methacycline, reference compound], in assay [2] (setting [3]), the “Primary Screen (10 μM), inhibition value” is 82%. Also, the IC50 in assay [2] (setting [4]) is less than 10 µM.
For `O=C1c2c(O)ccc(O)c2C(=O)c2c(NCCNCCO)ccc(NCCNCCO)c21` [Mitoxanthrone Hydrocloride, Mitoxanthrone Hydrochloride, reference compound], in assay [2] (setting [3]), the inhibition at 10 µM came to 49%. The IC50 in assay [2] (setting [4]) is greater than 10 µM.
In the case of `O=c1cc(-c2ccccc2)oc2cccc(O)c12` [Primuletin], the inhibition at 10 µM in assay [2] (setting [3]) came out at 30%. The IC50 in assay [2] (setting [4]) was greater than 10 µM.
With `O=c1c(O)cccc2cc(O)c(O)c(O)c12` [Purpurogallin], the inhibition at 10 µM in assay [2] (setting [3]) was found to be 30%. The concentration for half-maximal inhibition (IC50) in assay [2] (setting [4]) is greater than 10 µM.
Take `Cc1ccc(C(=O)Nc2ccc(S(=O)(=O)O)c3cc(S(=O)(=O)O)cc(S(=O)(=O)O)c23)cc1NC(=O)c1cccc(NC(=O)Nc2cccc(C(=O)Nc3cc(C(=O)Nc4ccc(S(=O)(=O)O)c5cc(S(=O)(=O)O)cc(S(=O)(=O)O)c45)ccc3C)c2)c1` [Suramin, reference compound]: the inhibition at 10 µM in assay [2] (setting [3]) worked out at 70%. Moreover, the IC50 in assay [2] (setting [4]) was less than 10 µM.
On the same counts, the results for `O=C(OC[C@H]1O[C@@H](OC(=O)c2cc(O)c(O)c(OC(=O)c3cc(O)c(O)c(O)c3)c2)[C@H](OC(=O)c2cc(O)c(O)c(OC(=O)c3cc(O)c(O)c(O)c3)c2)[C@@H](OC(=O)c2cc(O)c(O)c(OC(=O)c3cc(O)c(O)c(O)c3)c2)[C@@H]1OC(=O)c1cc(O)c(O)c(OC(=O)c2cc(O)c(O)c(O)c2)c1)c1cc(O)c(O)c(OC(=O)c2cc(O)c(O)c(O)c2)c1` [Tannic Acid] are 93% and less than 10 µM.
On the same counts, the results for `O=C(O[C@@H]1Cc2c(O)cc(O)cc2O[C@@H]1c1cc(O)c(=O)c2c(O)c(O)cc([C@H]3Oc4cc(O)cc(O)c4C[C@H]3O)c2c1)c1cc(O)c(O)c(O)c1` [Theaflavin Monogallate] are 88% and less than 10 µM.
As for Carboplatin [reference compound], in assay [2] (setting [3]), the “Primary Screen (10 μM), inhibition value” came to 45%. Moreover, in assay [2] (setting [4]), the IC50 was greater than 10 µM.

Source of the values: patent US20220151983A1, “COMPOUNDS FOR INHIBITING FUCOSYLATION AND METHODS FOR USING THE SAME” (SCORE PHARMA, INC., priority 2019, published 2022).
